Test results from patent US11472803B2, “7-substituted 1-aryl-naphthyridine-3-carboxylic acid amides and use thereof” (Bayer Aktiengesellschaft, priority 2016, dated 2022).

Molecular target: T1, human M2 receptor (Homo sapiens, UniProt P08172)
T1 construct: expressed in transfected cells; host or cells: CHO-DUKX (CHO-DUKX-M2-GIRK)
T1 sequence (P08172 1-466): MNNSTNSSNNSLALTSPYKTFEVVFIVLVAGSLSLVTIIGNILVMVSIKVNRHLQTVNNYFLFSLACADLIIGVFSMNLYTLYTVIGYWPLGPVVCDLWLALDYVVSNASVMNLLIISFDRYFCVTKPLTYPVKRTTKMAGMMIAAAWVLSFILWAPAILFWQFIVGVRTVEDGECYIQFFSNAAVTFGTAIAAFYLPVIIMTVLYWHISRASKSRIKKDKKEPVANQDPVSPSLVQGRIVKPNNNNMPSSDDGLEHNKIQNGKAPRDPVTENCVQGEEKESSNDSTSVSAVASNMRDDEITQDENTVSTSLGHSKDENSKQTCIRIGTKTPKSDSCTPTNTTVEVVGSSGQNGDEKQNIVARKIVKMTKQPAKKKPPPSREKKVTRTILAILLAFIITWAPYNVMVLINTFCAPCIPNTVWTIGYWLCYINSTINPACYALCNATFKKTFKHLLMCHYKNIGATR
Assay: Functional M2-GIRK1/4 activation test: allosteric potency (EC50) and efficiency at EC20 acetylcholine
Assay type: cell-based
Details: CHO-DUKX-M2-GIRK cells; for EC50: voltage-sensitive dye, acetylcholine at EC20, in some cases mean of two or more determinations; for Emax / Efficiency: boosting of the acetylcholine effect at EC20 acetylcholine concentration
Text: The binding of orthosteric agonists (endogenous ligand: acetylcholine) to the M2 receptor leads to receptor activation or a change in conformation of the receptor in the manner of a shift in equilibrium in favour of the active receptor conformation.
The agonist-induced change in conformation of the M2 receptor results in a Gαi protein activation. […] Under physiological conditions, the result is then a selective efflux of potassium from the cell along the electrochemical gradient. […] The extent of hyperpolarization can therefore be regarded as a measure of the activation of the M2 receptor.
The test cell used is a recombinant CHO-DUKX cell line which has been stably transfected with cDNA coding for the human M2 receptor and with cDNA coding for both GIRK1/4 subunits (CHO-DUKX-M2-GIRK). The transmembrane potential, or the relative changes in the transmembrane potential as a function of substance addition or M2 activation, is determined by means of a voltage-sensitive dye (FLIPR Membrane Potential Assay Kit Blue, Molecular Devices #R8034) and the measurement of cell fluorescence using a proprietary fluorescence imaging instrument.
The sowing medium consisted of MEM alpha medium (supplemented with 5% PCS, 2% Glutamax, no genticin).
For the particular measurement, the medium was removed and the cells were laden with the volt-age-sensitive dye for at least 6 min at room temperature (30 μl of loading buffer per 384-well). This was followed, in a first measurement, by the determination of the fluorescence for the resting transmembrane potential for a period of 5 sec. Thereafter, 10 μl in each case of the test substances diluted in loading buffer were added, followed by a second measurement to determine the transmembrane potential for a period of 50 sec in 1 sec increments. Finally, the cells were admixed with 10 μl of agonist solution (acetylcholine dissolved in loading buffer). Acetylcholine was used at the concentration corresponding to the EC20, which had been determined in a preliminary test. The M2-mediated GIRK1/4 activation or hyperpolarization was then monitored in a third measurement over a period of 60 sec. The EC50 value (degree of allosteric potency of test compound) and the efficiency (measure of the boosting of the acetylcholine effect at an EC20 acetylcholine concentration) were determined with the aid of a 4-parameter logistic function (Hill function).

Structure (SMILES) | EC50 [nM] | Emax [%] | Efficiency [%]
CC[C@H](NC(=O)c1cn(-c2c(F)cc(F)cc2Cl)c2nc(N3C[C@@H](O)[C@H](O)C3)c(F)cc2c1=O)C(F)(F)F (single isomer, unassigned) [Example 47] | 48 | 81 | –
CC(C)(NC(=O)c1cn(-c2c(F)cc(F)cc2Cl)c2nc(N3C[C@@H](O)[C@H](O)C3)c(F)cc2c1=O)C(F)(F)F (single isomer, unassigned) [Example 50] | 2.5 | – | 60
CC[C@H](NC(=O)c1cn(-c2c(F)cccc2F)c2nc(N(C)CCO)c(F)cc2c1=O)C(F)(F)F [Example 4, 1-(2,6-Difluorophenyl)-6-fluoro-7-[(2-hydroxyethyl)(methyl)amino]-4-oxo-N-[(2S)-1,1,1-trifluorobutan-2-yl]-1,4-dihydro-1,8-naphthyridine-3-carboxamide] | 38 | 89 | –
O=C(N[C@@H](C1CC1)C(F)(F)F)c1cn(-c2c(F)cc(F)cc2F)c2nc(N3CC4(COC4)C3)c(F)cc2c1=O [Example 83, N-[(1S)-1-Cyclopropyl-2,2,2-trifluoroethyl]-6-fluoro-7-(2-oxa-6-azaspiro[3.3]hept-6-yl)-4-oxo-1-(2,4,6-trifluorophenyl)-1,4-dihydro-1,8-naphthyridine-3-carboxamide] | 44 | 94 | –
C[C@H](NC(=O)c1cn(-c2c(F)cc(F)cc2F)c2nc(N3C[C@@H](O)[C@H](O)C3)c(F)cc2c1=O)C1CC1 [Example 20, N-[(1S)-1-cyclopropylethyl]-7-[(3R,4R)-3,4-dihydroxypyrrolidin-1-yl]-6-fluoro-4-oxo-1-(2,4,6-trifluorophenyl)-1,4-dihydro-1,8-naphthyridine-3-carboxamide] | 13 | 92 | –
CC(C)[C@H](C)NC(=O)c1cn(-c2c(F)cc(F)cc2F)c2nc(N3CC[C@H](O)C3)c(F)cc2c1=O [Example 119, 6-Fluoro-7-[(3S)-3-hydroxypyrrolidin-1-yl]-N-[(2S)-3-methylbutan-2-yl]-4-oxo-1-(2,4,6-tri-fluorophenyl)-1,4-dihydro-1,8-naphthyridine-3-carboxamide] | 8.7 | 100 | –
COC[C@@H](NC(=O)c1cn(-c2c(F)cc(F)cc2F)c2nc(N3C[C@@H](O)[C@H](O)C3)c(F)cc2c1=O)C(C)C [Example 17, 7-[(3R,4R)-3,4-dihydroxypyrrolidin-1-yl]-6-fluoro-N-[(2S)-1-methoxy-3-methylbutan-2-yl]-4-oxo-1-(2,4,6-trifluorophenyl)-1,4-dihydro-1,8-naphthyridine-carboxamide] | 79.5 | 83 | –
CC(C)(C)NC(=O)c1cn(-c2c(F)cc(F)cc2F)c2nc(N3C[C@@H](O)[C@@H](O)C3)c(F)cc2c1=O [Example 80, N-tert-Butyl-7-[(3R,4S)-3,4-dihydroxypyrrolidin-1-yl]-6-fluoro-4-oxo-1-(2,4,6-trifluoro-phenyl)-1,4-dihydro-1,8-naphthyridine-3-carboxamide] | 24 | 100 | –
CCN(CC(C)O)c1nc2c(cc1F)c(=O)c(C(=O)N[C@@H](C1CC1)C(F)(F)F)cn2-c1c(F)cc(F)cc1F (single isomer, unassigned) [Example 66] | 35 | 92 | –
CCC(C)(CC)NC(=O)c1cn(-c2c(F)cc(F)cc2F)c2nc(N3C[C@@H](O)[C@H](O)C3)c(F)cc2c1=O [Example 88, 7-[(3R,4R)-3,4-Dihydroxypyrrolidin-1-yl]-6-fluoro-N-(3-methylpentan-3-yl)-4-oxo-1-(2,4,6-trifluorophenyl)-1,4-dihydro-1,8-naphthyridine-3-carboxamide] | 2.2 | 100 | –
CCC(CC)(CC)NC(=O)c1cn(-c2c(F)cc(F)cc2F)c2nc(N3C[C@@H](O)[C@H](O)C3)c(F)cc2c1=O [Example 87, 7-[(3R,4R)-3,4-Dihydroxypyrrolidin-1-yl]-N-(3-ethylpentan-3-yl)-6-fluoro-4-oxo-1-(2,4,6-tri-fluorophenyl)-1,4-dihydro-1,8-naphthyridine-3-carboxamide] | 1.4 | 100 | –
CC(C)[C@@H](C)NC(=O)c1cn(-c2c(F)cc(F)cc2F)c2nc(N3CC[C@H](O)C3)c(F)cc2c1=O [Example 120, 6-Fluoro-7-[(3S)-3-hydroxypyrrolidin-1-yl]-N-[(2R)-3-methylbutan-2-yl]-4-oxo-1-(2,4,6-tri-fluorophenyl)-1,4-dihydro-1,8-naphthyridine-3-carboxamide] | 10.5 | 96 | –

Continued, values first:

EC50 [nM] | Emax [%] | Efficiency [%] | Structure (SMILES)
4.8 | 82 | – | O=C(N[C@@H](C1CC1)C(F)(F)F)c1cn(-c2c(F)cc(F)cc2F)c2nc(N3CCCC3)c(F)cc2c1=O [Example 231, N-[(1S)-1-cyclopropyl-2,2,2-trifluoroethyl]-6-fluoro-4-oxo-7-(pyrrolidin-1-yl)-1-(2,4,6-tri-fluorophenyl)-1,4-dihydro-1,8-naphthyridine-3-carboxamide]
1.5 | – | 99 | CC(C)(C)C(NC(=O)c1cn(-c2c(F)cc(F)cc2F)c2nc(N3CC(CO)(CO)C3)c(F)cc2c1=O)C(F)(F)C(F)(F)F (single isomer, unassigned) [Example 216, 7-[3,3-bis(hydroxymethyl)azetidin-1-yl]-6-fluoro-4-oxo-N-[1,1,1,2,2-pentafluoro-4,4-dimethylpentan-3-yl]-1-(2,4,6-trifluorophenyl)-1,4-dihydro-1,8-naphthyridine-3-carboxamide]
14 | 100 | – | O=C(NC(C(F)(F)F)C(F)(F)F)c1cn(-c2c(F)cc(F)cc2F)c2nc(N3CCC[C@@H]3CO)c(F)cc2c1=O [Example 199, 6-Fluoro-N-(1,1,1,3,3,3-hexafluoropropan-2-yl)-7-[(2R)-2-(hydroxymethyl)pyrrolidin-1-yl]-4-oxo-1-(2,4,6-trifluorophenyl)-1,4-dihydro-1,8-naphthyridine-3-carboxamide]
63 | 100 | – | O=C(NC(C(F)(F)F)C(F)(F)F)c1cn(-c2c(F)cc(F)cc2F)c2nc(N3CC4(COC4)C3)c(F)cc2c1=O [Example 196, 6-Fluoro-N-(1,1,1,3,3,3-hexafluoropropan-2-yl)-7-(2-oxa-6-azaspiro[3.3]hept-6-yl)-4-oxo-1-(2,4,6-trifluorophenyl)-1,4-dihydro-1,8-naphthyridine-3-carboxamide]
16.5 | 91 | – | C[C@@H](NC(=O)c1cn(-c2c(F)cc(F)cc2F)c2nc(N3C[C@@H](O)[C@H](O)C3)c(F)cc2c1=O)C(F)(F)F [Example 219, 7-[(3R,4R)-3,4-dihydroxypyrrolidin-1-yl]-6-fluoro-4-oxo-1-(2,4,6-trifluorophenyl)-N-[(2R)-1,1,1-trifluoropropan-2-yl]-1,4-dihydro-1,8-naphthyridine-3-carboxamide]
7 | 100 | – | CC(NC(=O)c1cn(-c2c(F)cc(F)cc2F)c2nc(N3CC[C@H](O)C3)c(Br)cc2c1=O)C(F)(F)C(F)(F)F (single isomer, unassigned) [Example 232]
8.5 | 86 | – | CN(C)c1nc2c(cc1F)c(=O)c(C(=O)NC(C(F)(F)F)C(F)(F)F)cn2-c1c(F)cc(F)cc1Cl [Example 180, 1-(2-Chloro-4,6-difluorophenyl)-7-(dimethylamino)-6-fluoro-N-(1,1,1,3,3,3-hexafluoropropan-2-yl)-4-oxo-1,4-dihydro-1,8-naphthyridine-3-carboxamide]
10 | 99 | – | O=C(NCc1c(Cl)cccc1Cl)c1cn(-c2c(F)cc(F)cc2F)c2nc(N3C[C@@H](O)[C@H](O)C3)c(F)cc2c1=O [Example 132, N-(2,6-Dichlorobenzyl)-7-[(3R,4R)-3,4-dihydroxypyrrolidin-1-yl]-6-fluoro-4-oxo-1-(2,4,6-tri-fluorophenyl)-1,4-dihydro-1,8-naphthyridine-3-carboxamide]
